Data as given in publication PMC8921065, “Combination of terbium-161 with somatostatin receptor antagonists—a potential paradigm shift for the treatment of neuroendocrine neoplasms” (European Journal of Nuclear Medicine and Molecular Imaging, 2021).

Assay: in vivo
Conditions: mouse, iv, 0.2 nmol/mouse, total radioactivity

Measured: tissue uptake at 24 h

C[C@@H](O)[C@@H]1NC(=O)[C@H](CCCCN)NC(=O)[C@@H](Cc2ccc(NC(N)=O)cc2)NC(=O)[C@H](Cc2ccc(O)cc2)NC(=O)[C@H](NC(=O)[C@H](Cc2ccc(Cl)cc2)NC(=O)CN2CCN(CC(=O)O)CCN(CC(=O)O)CCN(CC(=O)O)CC2)CSSC[C@@H](C(=O)N[C@H](Cc2ccc(O)cc2)C(N)=O)NC1=O [metal not drawn]
≤ 0.1 %ID/g: blood | heart | muscle
